Test results from paper PMC7352216 (Cancers, 2020).
Where two headings read alike, the source gives them in different places.

What was measured:
[1] = tested on: c-MET phosphorylation; assay: PK/PD correlation in EBC-1 and SNU-5 tumor-bearing mice; conditions: 10 or 30 mg/kg, free fraction 0.07
[2] = Pharmacokinetic study; assay type: in vivo, SD rats
Description: (§1) Thirty SD rats (24 males and 6 females, approximately 7–9 weeks old, approximately 299–390 g on the dosing day) were purchased from Vital River Laboratory Animal Technology Co., Ltd., and beagle dogs (12 males and 3 females, approximately 12–24 months old, approximately 8–14 kg on the dosing day) were purchased from Beijing Marshall Biotechnology Co., Ltd. The rats and dogs were maintained in air-conditioned animal quarters with alternating 12 h light/dark cycles at a RT of 20–26 °C and a relative humidity of 40–70% before and during the trial. All procedures involving the care and handling of the rats and dogs followed the guidelines of the Pharmaron Institutional Animal Care and Use Committee (Nos. 51604-17-786, 51604-17-785). PK studies were designed to characterize the single-dose intravenous and oral PK profiles of ABN401 in rats and dogs. […] The formulation was freshly prepared on the day of dosing. For all intravenous studies, dosing solutions were prepared using the required volume of 5% DMSO/45% PEG400 in 50% distilled water, whereas 20% PEG400 in 0.1 M sodium acetate buffer (pH 4) was used to prepare oral formulations. The formulated samples were stirred at RT for at least 10 min prior to and during dosing. For the assessment of plasma drug concentrations, blood samples were collected at 5, 15, 30, 60, 120, 240, 480, and 1440 min post-dose from each rat and dog. Liquid chromatography, coupled with tandem mass spectrometry (LC-MS/MS), was used to quantify ABN401 in plasma samples from rats and dogs. […] Blood samples were collected from the cephalic vein or the femoral vein prior to administration and at 0.5, 1, 2, 4, 8, 12, and 24 h after administration in the control group which received vehicle and in the orally treated groups. In the intravenous administration group, blood was collected from the cephalic vein or the femoral vein prior to administration and at 0.083, 0.25, 0.5, 1, 2, 4, 8, and 24 h after administration. […] All procedures involving the care and handling of the monkeys followed the guidelines of the KIT-Institutional Animal Care and Use Committee (No. MN117002).
(§2) The linear log trapezoidal algorithm weighting, 1/Y × Y, was used for parameter calculation. The mean PK parameters were calculated in individual animals from each treatment group. Concentrations below the lower limit of quantification (BLLOQ) were excluded from the calculation of PK parameters. The mean values of the PK parameters were calculated using Microsoft Excel.

[3] = tested on: MKN45; assay: WST cell viability assay; conditions: Homo sapiens, MKN-45, 72 h, read-out: ABN401 IC50
[4] = tested on: EBC-1 tumors; assay: In vivo efficacy test in xenograft model; parameters: species or system BALB/c-nude mice; conditions: 10 mg/kg oral, five consecutive days a week for three weeks
[5] = tested on: HFE145 (Negative cell line); assay: WST cell viability assay
[6] = Pharmacokinetic study; assay type: in vivo, cynomolgus monkeys; conditions: for AUC0-t / AUCinf / Cmax / Tmax / half-life: male
Description: as §1, §2

[7] = SD, rat, plasma, IV 5 mg/kg, male
[8] = SD, rat, plasma, PO 5 mg/kg, female
[9] = SD, rat, plasma, PO 5 mg/kg, male
[10] = SD, rat, plasma, PO 20 mg/kg, male
[11] = SD, rat, plasma, PO 50 mg/kg, male
[12] = cynomolgus monkey, plasma, IV 1 mg/kg
[13] = cynomolgus monkey, plasma, PO 1 mg/kg capsule
[14] = cynomolgus monkey, plasma, PO 5 mg/kg capsule
[15] = cynomolgus monkey, plasma, PO 10 mg/kg capsule

CN1CCN(Cc2ccc(-c3cnc(N4CCOC(Cn5nnc6ncc(-c7cnn(C)c7)nc65)C4)nc3)cc2)CC1 (stereo not shown) [ABN401]
effective concentration of ABN401 (free drug hypothesis) [1]: up to 165 nM
AUC0-t ([2]; IV 5 mg/kg, male): 5946 hr X ng/mL
AUCinf ([2]; IV 5 mg/kg, male): 5971 hr X ng/mL
observations in preclinical PK study ([2]; IV and oral, 0 to 24 h): no abnormal observations
AUC0-t ([2]; PO 5 mg/kg, female): 3344 hr X ng/mL
AUC0-t ([2]; PO 20 mg/kg, male): 8003 hr X ng/mL
AUC0-t ([2]; PO 50 mg/kg, male): 13,219 hr X ng/mL
C0 [2, 7]: 3.52 µg/mL
MRT last [2, 7]: 3.15 h
half-life [2, 7]: 3.33 h
Cmax [2, 8]: 0.619 µg/mL
MRT last [2, 8]: 4.55 h
Tmax [2, 8]: 1.5 h
bioavailability ([2]; SD, rat, plasma, PO 5 mg/kg, female, read-out: F): 56.2%
Cmax [2, 9]: 0.458 µg/mL
MRT last [2, 9]: 4.9 h
Tmax [2, 9]: 2 h
bioavailability ([2]; SD, rat, plasma, PO 5 mg/kg, male, read-out: F): 42.1%
Cmax [2, 10]: 1.02 µg/mL
MRT last [2, 10]: 6.14 h
Tmax [2, 10]: 3 h
bioavailability ([2]; SD, rat, plasma, PO 20 mg/kg, male, read-out: F): 33.6%
Cmax [2, 11]: 1.43 µg/mL
MRT last [2, 11]: 8.28 h
Tmax [2, 11]: 2 h
bioavailability ([2]; SD, rat, plasma, PO 50 mg/kg, male, read-out: F): 22.2%
bioavailability ([2]; both sexes, SD, rat, plasma, oral, read-out: bioavailability F%): 42.1 to 56.2%
IC50 [3]: 3.18 nM
TGI [4]: 51.26%
cell killing ([5]; 10 μM ABN401): No cell killing
IC50 ([5]; 72 h, read-out: ABN401 IC50): > 10000 nM
AUC0-t ([6]; IV 1 mg/kg): 322.6 hr X ng/mL
AUCinf ([6]; IV 1 mg/kg): 327.1 hr X ng/mL
observations in preclinical PK study ([6]; IV and oral, 0 to 24 h): no abnormal observations
AUC0-t ([6]; PO 1 mg/kg capsule): 2.9 hr X ng/mL
AUC0-t ([6]; PO 5 mg/kg capsule): 33.6 hr X ng/mL
AUC0-t ([6]; PO 10 mg/kg capsule): 67.0 hr X ng/mL
AUCinf ([6]; PO 10 mg/kg capsule): 78.2 hr X ng/mL
Cmax [6, 12]: 0.324 µg/mL
Tmax [6, 12]: 0.083 h
half-life [6, 12]: 0.88 h
Cmax [6, 13]: 0.0019 µg/mL
Tmax [6, 13]: 1.7 h
Cmax [6, 14]: 0.0074 µg/mL
Tmax [6, 14]: 4 h
Cmax [6, 15]: 0.0108 µg/mL
Tmax [6, 15]: 3.3 h
half-life [6, 15]: 6 h
bioavailability ([6]; cynomolgus monkey, plasma, oral doses ranging from 1–10 mg/kg, read-out: bioavailability F%): 0.9 to 2.1%
